Data reported in ChEMBL document CHEMBL3832549, “DailyMed|setid=7633c9b3-dfb5-446f-a260-e44b6e48afa2 | BUDESONIDE- budesonide capsule|Carilion Materials Management”.

Legend:
[1] = (§1) Evaluation of pharmacokinetic parameters for Budesonide following single oral administration of Budesonide capsules (enteric coated) to healthy subjects and/or patients with Crohn's disease.; format: ADME, organism-based; parameters: dose 9 mg, route oral; conditions: human, in vivo, dosed compound id 9, dosed compound name BUDESONIDE, regimen Single dose, tissue Plasma
Homo sapiens = assay: as §1; format: ADME, organism-based; parameters: dose 9 mg, route oral; conditions: in vivo, po, dosed compound id 9, dosed compound name BUDESONIDE, gender male and female, regimen Single dose, tissue Plasma
[2] = po, 9 mg, gender male and female

CCCC1O[C@@H]2C[C@H]3[C@@H]4CCC5=CC(=O)C=C[C@]5(C)[C@H]4[C@@H](O)C[C@]3(C)[C@]2(C(=O)CO)O1 (stereo not given in full) [BUDESONIDE]
Tmax ([1]; 9 mg, route oral): 0.5 to 10 h | AUC [1, 2]: 0.03 µM·h | Cmax [1, 2]: 5 nM | fraction unbound ([1]; po, at 9 mg, gender male and female, route oral, read-out: Protein binding): 0.1 to 0.15 | Vd (Homo sapiens): 2.2 to 3.9 L/kg
